Experimental findings from ChEMBL document CHEMBL1149874 (Bioorg Med Chem, 2008) are described below.

The target in assay [1] is T1, Mu-type opioid receptor (Homo sapiens, UniProt P35372). In words: Displacement of [3H]DAMGO from mu opioid receptor in human SH-SY5Y cells. The class given is cell-based.
In assay [2] the target is T1, Mu-type opioid receptor. In words: Decrease in internalization of mu opioid receptor in human SH-SY5Y cells. The class given is cell-based.
Assay [3] concerns the target T1, Mu-type opioid receptor. In words: Agonist activity at mu opioid receptor assessed as inhibition of forskolin-induced cAMP production in human SH-SY5Y cells pretreated for 24 hrs with DMEM medium after 15 mins. The class given is functional, cell-based.
Assay [4] has as its target T1, Mu-type opioid receptor. In words: Increase in internalization of mu opioid receptor in human SH-SY5Y cells. The class given is cell-based.
The target in assay [5] is T1, Mu-type opioid receptor. Put plainly: Agonist activity at mu opioid receptor assessed as inhibition of forskolin-induced cAMP production in human SH-SY5Y cells pretreated for 24 hrs with excess ligand after 15 mins. The class given is functional, cell-based.

Activity calls are given as the source filed them. The calls are words filed in the database; no cut-off is given here. Residues, ends and D or L forms follow the SMILES beside them.

T1 sequence (P35372 whole entry): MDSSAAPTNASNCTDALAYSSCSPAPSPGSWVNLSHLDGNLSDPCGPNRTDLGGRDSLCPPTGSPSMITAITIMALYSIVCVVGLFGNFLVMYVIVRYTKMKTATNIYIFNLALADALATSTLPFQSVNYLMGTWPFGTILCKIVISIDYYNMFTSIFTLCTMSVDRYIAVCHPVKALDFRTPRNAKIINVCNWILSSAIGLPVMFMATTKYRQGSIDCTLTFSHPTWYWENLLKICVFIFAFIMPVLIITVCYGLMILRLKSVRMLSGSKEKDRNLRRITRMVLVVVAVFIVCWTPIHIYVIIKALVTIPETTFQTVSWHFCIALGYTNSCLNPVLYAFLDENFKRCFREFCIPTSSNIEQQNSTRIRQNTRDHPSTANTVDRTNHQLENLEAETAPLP

The molecule `C[C@H](NC(=O)[C@@H](N)Cc1ccc(O)cc1)C(=O)N[C@@H](Cc1c[nH]c2ccccc12)C(=O)N[C@@H](Cc1ccccc1)C(N)=O` (H-YAWF-NH2) registered a Ki at Mu-type opioid receptor [1] of 3190 nM. This counts as single-digit micromolar.
Regarding `C[C@H](NC(=O)[C@H](C)NC(=O)[C@@H]1CCCN1C(=O)[C@@H](N)Cc1ccc(O)cc1)C(N)=O` (H-YPAA-NH2), the result at Mu-type opioid receptor [2] was Active. Further, affinity on Mu-type opioid receptor [1] was put at a Ki of 705 nM.
With `C[C@H](NC(=O)[C@@H]1CCCN1C(=O)[C@@H](N)Cc1ccc(O)cc1)C(=O)N[C@@H](Cc1ccccc1)C(N)=O` (H-YPAF-NH2), the result on Mu-type opioid receptor [2] was Active. In addition, the Ki at Mu-type opioid receptor [1] was determined as 226 nM.
In the case of `C[C@H](NC(=O)[C@H](Cc1c[nH]c2ccccc12)NC(=O)[C@@H]1CCCN1C(=O)[C@@H](N)Cc1ccc(O)cc1)C(N)=O` (H-YPWA-NH2), the result at Mu-type opioid receptor [2] was Active. On Mu-type opioid receptor [1], this molecule displayed an inhibition constant Ki of 72.7 nM.
H-YGGWL-NH2 gave a Ki at Mu-type opioid receptor [1] of 12.1 nM. Besides, the IC50 stood at 27.5 nM on Mu-type opioid receptor [3] and 49.2 nM at Mu-type opioid receptor [5]. This molecule also showed an Activity at Mu-type opioid receptor [4] of 22%.
As for H-YGWFL-NH2, the Ki at Mu-type opioid receptor [1] was determined as 113 nM. In addition, the IC50 on Mu-type opioid receptor [3] was 126 nM; on Mu-type opioid receptor [5], 132 nM. This molecule yielded an Activity on Mu-type opioid receptor [4] of 40%.
